# Where two headings read alike, the source gives them in different places.
# Columns and labels:
# Assay type in all cases: in vivo
# [1] = test system: barnyardgrass (Echinochloa crus-galli); test: Test A postemergence; settings: Echinochloa crus-galli, post-emergence, 240 h; for pest or weed control at 125 g/ha: 125 g ai/ha, postemergence
# Summary of the method: (§1)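 Treatment is preemergence as a directed soil spray after planting, or postemergence at the one- to two-leaf stage, with test chemical in a non-phytotoxic solvent mixture plus surfactant. Plants stay in the greenhouse about 10 d before visual injury scoring on a 0 to 100 scale versus untreated controls.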
# Kochia (Kochia scoparia) [2] = test: Test A postemergence; settings: Bassia scoparia, post-emergence, 240 h, postemergence; for pest or weed control at 125 g/ha: 125 g ai/ha
# Summary of the method: as §1
# [3] = test system: wheat (Triticum aestivum); test: Test A postemergence; settings: Triticum aestivum, post-emergence, 240 h, postemergence; for plant injury at 125 g/ha: 125 g ai/ha
# Summary of the method: as §1
# [4] = test system: giant foxtail (Setaria faberii); test: Test A postemergence; settings: Setaria faberi, post-emergence, 240 h, postemergence; for pest or weed control at 125 g/ha: 125 g ai/ha
# Summary of the method: as §1
# [5] = test system: barnyardgrass (Echinochloa crus-galli); test: Test B flooded paddy test; settings: Flood, 250 g ai/ha; for pest or weed control at 250 g/ha: Echinochloa crus-galli, scale of 0 to 100 where 0 is no effect and 100 is complete control, read-out: Barnyardgrass plant response rating
# Summary of the method: (§2)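 Percent control, visually estimated after 13–15 d in the greenhouse on a 0–100 basis, compares treated pots with untreated ones; compound was put into paddy water 3 cm above the soil when plants had two leaves.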
# rice (Oryra sativa) = test: Test B flooded paddy test; settings: Flood, 250 g ai/ha; for pest or weed control at 250 g/ha: Oryza sativa, scale of 0 to 100 where 0 is no effect and 100 is complete control, read-out: Rice plant response rating
# Summary of the method: as §2
# [6] = test system: ducksalad (Heteranthera limosa); test: Test B flooded paddy test; settings: Flood, 250 g ai/ha; for pest or weed control at 250 g/ha: Heteranthera limosa, scale of 0 to 100 where 0 is no effect and 100 is complete control, read-out: Ducksalad plant response rating
# Summary of the method: as §2
# [7] = test system: sedge, umbrella (small-flower umbrella sedge, Cyperus difformis); test: Test B flooded paddy test; settings: Flood, 250 g ai/ha; for pest or weed control at 250 g/ha: Cyperus difformis, scale of 0 to 100 where 0 is no effect and 100 is complete control, read-out: Sedge, Umbrella plant response rating
# Summary of the method: as §2
# [8] = test system: barnyardgrass (Echinochloa crus-galli); test: Test A preemergence; settings: Echinochloa crus-galli, pre-emergence, 240 h; for pest or weed control at 125 g/ha: 125 g ai/ha, 0 to 100 scale where 0 is no effect and 100 is complete control; for pest or weed control at 500 g/ha: 500 g ai/ha
# Summary of the method: as §1
# [9] = test system: pigweed (Amaranthus retroflexus); test: Test A preemergence; settings: Amaranthus retroflexus, pre-emergence, 240 h; for pest or weed control at 125 g/ha: 125 g ai/ha, 0 to 100 scale where 0 is no effect and 100 is complete control; for pest or weed control at 500 g/ha: 500 g ai/ha
# Kochia (Kochia scoparia) [10] = test: Test A preemergence; settings: Bassia scoparia, pre-emergence, 240 h; for pest or weed control at 125 g/ha: 125 g ai/ha, 0 to 100 scale where 0 is no effect and 100 is complete control; for pest or weed control at 500 g/ha: 500 g ai/ha
# Summary of the method: as §1
# [11] = test system: ragweed (common ragweed, Ambrosia elatior); test: Test A preemergence; settings: Ambrosia artemisiifolia, pre-emergence, 240 h; for pest or weed control at 125 g/ha: 125 g ai/ha, 0 to 100 scale where 0 is no effect and 100 is complete control; for pest or weed control at 500 g/ha: 500 g ai/ha
# Summary of the method: as §1
# [12] = test system: ryegrass, Italian (Italian ryegrass, Lolium multiflorum); test: Test A preemergence; settings: Lolium multiflorum, pre-emergence, 240 h; for pest or weed control at 125 g/ha: 125 g ai/ha, 0 to 100 scale where 0 is no effect and 100 is complete control; for pest or weed control at 500 g/ha: 500 g ai/ha
# Summary of the method: as §1
# [13] = test system: giant foxtail (Setaria faberii); test: Test A preemergence; settings: Setaria faberi, pre-emergence, 240 h; for pest or weed control at 125 g/ha: 125 g ai/ha, 0 to 100 scale where 0 is no effect and 100 is complete control; for pest or weed control at 500 g/ha: 500 g ai/ha
# Summary of the method: as §1
# [14] = 0 to 100 scale where 0 is no effect and 100 is complete control, 13 to 15 d
# [15] = visual injury rating after approximately 10 d, read-out: Barnyardgrass plant response rating (0 to 100 scale, 0 no effect, 100 complete control)
# [16] = visual injury rating after approximately 10 d, read-out: Kochia plant response rating (0 to 100 scale, 0 no effect, 100 complete control)
# [17] = visual injury rating after approximately 10 d, read-out: Wheat plant response rating (0 to 100 scale, 0 no effect, 100 complete control)
# [18] = visual injury rating after approximately 10 d, read-out: Foxtail, Giant plant response rating (0 to 100 scale, 0 no effect, 100 complete control)
# [19] = preemergence, read-out: Barnyardgrass plant response rating
# [20] = Preemergence, visual injury vs untreated controls after approximately 10 d, read-out: Barnyardgrass plant response rating (0 to 100 scale where 0 is no effect and 100 is complete control)
# [21] = preemergence, read-out: Pigweed plant response rating
# [22] = Preemergence, visual injury vs untreated controls after approximately 10 d, read-out: Pigweed plant response rating (0 to 100 scale where 0 is no effect and 100 is complete control)
# [23] = preemergence, read-out: Kochia plant response rating
# [24] = Preemergence, visual injury vs untreated controls after approximately 10 d, read-out: Kochia plant response rating (0 to 100 scale where 0 is no effect and 100 is complete control)
# [25] = preemergence, read-out: Ragweed plant response rating
# [26] = Preemergence, visual injury vs untreated controls after approximately 10 d, read-out: Ragweed plant response rating (0 to 100 scale where 0 is no effect and 100 is complete control)
# [27] = preemergence, read-out: Ryegrass, Italian plant response rating
# [28] = Preemergence, visual injury vs untreated controls after approximately 10 d, read-out: Ryegrass, Italian plant response rating (0 to 100 scale where 0 is no effect and 100 is complete control)
# [29] = preemergence, read-out: Foxtail, Giant plant response rating
# [30] = Preemergence, visual injury vs untreated controls after approximately 10 d, read-out: Foxtail, Giant plant response rating (0 to 100 scale where 0 is no effect and 100 is complete control)
structure (smiles),measurement,setting,value
"CN1C[C@H](c2ccc(F)c(F)c2)[C@@H](C(=O)Nc2cccc(F)c2F)C1=O [Compound 639, (3S,4S)—N-(2,3-difluorophenyl)-4-(3,4-difluorophenyl)-1-methyl-2-oxo-3-pyrrolidinecarboxamide]",pest or weed control at 125 g/ha,"[1]; visual rating after approx. 10 d, 0 to 100 scale (0 no effect, 100 complete control), read-out: Plant response rating, Barnyardgrass",90%
same,pest or weed control at 500 g/ha,"[1]; Postemergence, 500 g ai/ha, 0 to 100 scale where 0 is no effect and 100 is complete control, read-out: Plant response rating, Barnyardgrass",90%
same,pest or weed control at 125 g/ha,"Kochia (Kochia scoparia) [2]; visual rating after approx. 10 d, 0 to 100 scale (0 no effect, 100 complete control), read-out: Plant response rating, Kochia",60%
same,pest or weed control at 500 g/ha,"Kochia (Kochia scoparia) [2]; 500 g ai/ha, visual injury, 0 to 100 scale (0 no effect, 100 complete control), approx. 10 d, read-out: Plant response rating, Kochia",70%
same,plant injury at 125 g/ha,"[3]; visual rating after approx. 10 d, 0 to 100 scale (0 no effect, 100 complete control), read-out: Plant response rating, Wheat",60%
same,plant injury at 500 g/ha,"[3]; 500 g ai/ha, visual injury, 0 to 100 scale (0 no effect, 100 complete control), approx. 10 d, read-out: Plant response rating, Wheat",60%
same,pest or weed control at 125 g/ha,"[4]; visual rating after approx. 10 d, 0 to 100 scale (0 no effect, 100 complete control), read-out: Plant response rating, Foxtail, Giant",90%
same,pest or weed control at 500 g/ha,"[4]; 500 g ai/ha, visual injury, 0 to 100 scale (0 no effect, 100 complete control), approx. 10 d, read-out: Plant response rating, Foxtail, Giant",90%
same,"Plant response rating, Barnyardgrass",[5]; [14],80
same,"Plant response rating, Rice",rice (Oryra sativa); [14],0
same,"Plant response rating, Ducksalad",[6]; [14],100
same,"Plant response rating, Sedge, Umbrella",[7]; [14],0
same,pest or weed control at 125 g/ha,"[8]; Preemergence, visual injury after approximately 10 d, read-out: Plant response rating, Barnyardgrass",90%
same,pest or weed control at 500 g/ha,"[8]; preemergence, 0 to 100 scale, 0 = no effect, 100 = complete control, read-out: Plant response rating, Barnyardgrass",90%
same,pest or weed control at 125 g/ha,"[9]; Preemergence, visual injury after approximately 10 d, read-out: Plant response rating, Pigweed",50%
same,pest or weed control at 500 g/ha,"[9]; preemergence, 0 to 100 scale, 0 = no effect, 100 = complete control, read-out: Plant response rating, Pigweed",80%
same,pest or weed control at 125 g/ha,"Kochia (Kochia scoparia) [10]; Preemergence, visual injury after approximately 10 d, read-out: Plant response rating, Kochia",70%
same,pest or weed control at 500 g/ha,"Kochia (Kochia scoparia) [10]; preemergence, 0 to 100 scale, 0 = no effect, 100 = complete control, read-out: Plant response rating, Kochia",80%
same,pest or weed control at 125 g/ha,"[11]; Preemergence, visual injury after approximately 10 d, read-out: Plant response rating, Ragweed",50%
same,pest or weed control at 500 g/ha,"[11]; preemergence, 0 to 100 scale, 0 = no effect, 100 = complete control, read-out: Plant response rating, Ragweed",70%
same,pest or weed control at 125 g/ha,"[12]; Preemergence, visual injury after approximately 10 d, read-out: Plant response rating, Ryegrass, Italian",60%
same,pest or weed control at 500 g/ha,"[12]; preemergence, 0 to 100 scale, 0 = no effect, 100 = complete control, read-out: Plant response rating, Ryegrass, Italian",90%
same,pest or weed control at 125 g/ha,"[13]; Preemergence, visual injury after approximately 10 d, read-out: Plant response rating, Foxtail, Giant",90%
same,pest or weed control at 500 g/ha,"[13]; preemergence, 0 to 100 scale, 0 = no effect, 100 = complete control, read-out: Plant response rating, Foxtail, Giant",100%
CN1C[C@H](c2cccc(C3CC3)c2)[C@@H](C(=O)Nc2ccccc2S(C)(=O)=O)C1=O [Compound 817],pest or weed control at 125 g/ha,[1]; [15],90%
same,pest or weed control at 125 g/ha,Kochia (Kochia scoparia) [2]; [16],0%
same,plant injury at 125 g/ha,[3]; [17],50%
same,pest or weed control at 125 g/ha,[4]; [18],90%
same,pest or weed control at 250 g/ha,[5],60%
same,pest or weed control at 250 g/ha,rice (Oryra sativa),0%
same,pest or weed control at 250 g/ha,[6],90%
same,pest or weed control at 250 g/ha,[7],0%
same,pest or weed control at 125 g/ha,[8]; [19],90%
same,pest or weed control at 500 g/ha,[8]; [20],90%
same,pest or weed control at 125 g/ha,[9]; [21],0%
same,pest or weed control at 500 g/ha,[9]; [22],80%
same,pest or weed control at 125 g/ha,Kochia (Kochia scoparia) [10]; [23],50%
same,pest or weed control at 500 g/ha,Kochia (Kochia scoparia) [10]; [24],70%
same,pest or weed control at 125 g/ha,[11]; [25],20%
same,pest or weed control at 500 g/ha,[11]; [26],50%
same,pest or weed control at 125 g/ha,[12]; [27],20%
same,pest or weed control at 500 g/ha,[12]; [28],40%
same,pest or weed control at 125 g/ha,[13]; [29],90%
same,pest or weed control at 500 g/ha,[13]; [30],90%
CN1C[C@H](c2cccc(C3CC3)c2)[C@@H](C(=O)Nc2ccc(F)cc2F)C1=O [Compound 818],pest or weed control at 125 g/ha,[1]; [15],90%
same,pest or weed control at 125 g/ha,Kochia (Kochia scoparia) [2]; [16],40%
same,plant injury at 125 g/ha,[3]; [17],0%
same,pest or weed control at 125 g/ha,[4]; [18],90%
same,pest or weed control at 250 g/ha,[5],55%
same,pest or weed control at 250 g/ha,rice (Oryra sativa),0%
same,pest or weed control at 250 g/ha,[6],80%
same,pest or weed control at 250 g/ha,[7],0%
same,pest or weed control at 125 g/ha,[8]; [19],90%
same,pest or weed control at 500 g/ha,[8]; [20],100%
same,pest or weed control at 125 g/ha,[9]; [21],20%
same,pest or weed control at 500 g/ha,[9]; [22],60%
same,pest or weed control at 125 g/ha,Kochia (Kochia scoparia) [10]; [23],70%
same,pest or weed control at 500 g/ha,Kochia (Kochia scoparia) [10]; [24],80%
same,pest or weed control at 125 g/ha,[11]; [25],0%
same,pest or weed control at 500 g/ha,[11]; [26],0%
same,pest or weed control at 125 g/ha,[12]; [27],60%
same,pest or weed control at 500 g/ha,[12]; [28],90%
same,pest or weed control at 125 g/ha,[13]; [29],90%
same,pest or weed control at 500 g/ha,[13]; [30],100%

# Source: patent US12077503B2, “Substituted cyclic amides and their use as herbicides” (FMC CORPORATION, priority 2015, dated 2024)
